From patent US20210094971A1, “HETEROCYCLIC COMPOUNDS” (Hoffmann-La Roche Inc., priority 2019, published 2021)

Biological target: T1, MAGL (Homo sapiens, UniProt Q99685)
T1 sequence (Q99685 1-303): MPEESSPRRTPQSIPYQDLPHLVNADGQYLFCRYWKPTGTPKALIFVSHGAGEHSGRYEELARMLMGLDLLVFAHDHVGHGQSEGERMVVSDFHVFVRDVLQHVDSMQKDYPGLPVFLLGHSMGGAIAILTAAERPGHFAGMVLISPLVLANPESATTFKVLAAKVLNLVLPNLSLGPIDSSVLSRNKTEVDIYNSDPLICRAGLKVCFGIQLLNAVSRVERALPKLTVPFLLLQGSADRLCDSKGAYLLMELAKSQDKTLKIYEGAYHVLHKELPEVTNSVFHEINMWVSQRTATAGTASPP
Assay: 2-AG assay (MAGL inhibitory activity, hydrolysis of 2-arachidonoylglycerol followed by mass spectrometry)
Assay type: biochemical
Details: 50 pM MAGL, 8 μM 2-arachidonoylglycerol, 15 min pre-incubation, 30 min incubation at RT
Procedure: Compounds were profiled for MAGL inhibitory activity by determining the enzymatic activity by following the hydrolysis of the natural substrate 2-arachidonoylglycerol resulting in arachidonic acid, which can be followed by mass spectrometry. This assay is hereinafter abbreviated “2-AG assay”.
The 2-AG assay was carried out in 384 well assay plates (PP, Greiner Cat# 784201) in a total volume of 20 μL. Compound dilutions were made in 100% DMSO (VWR Chemicals 23500.297) in a polypropylene plate in 3-fold dilution steps to give a final concentration range in the assay from 12.5 μM to 0.8 pM. 0.25 μL compound dilutions (100% DMSO) were added to 9 μL MAGL in assay buffer (50 mM TRIS (GIBCO, 15567-027), 1 mM EDTA (Fluka, 03690-100 ml), 0.01% (v/v) Tween. After shaking, the plate was incubated for 15 min at RT. To start the reaction, 10 μL 2-arachidonoylglycerol in assay buffer was added. The final concentrations in the assay was 50 pM MAGL and 8 μM 2-arachidonoylglyerol. After shaking and 30 min incubation at RT, the reaction was quenched by the addition of 40 μL of acetonitrile containing 4 μM of d8-arachidonic acid. The amount of arachidonic acid was traced by an online SPE system (Agilent Rapidfire) coupled to a triple quadrupole mass spectrometer (Agilent 6460). A C18 SPE cartridge (G9205A) was used in an acetonitrile/water liquid setup. The mass spectrometer was operated in negative electrospray mode following the mass transitions 303.1→259.1 for arachidonic acid and 311.1→267.0 for d8-arachidonic acid. The activity of the compounds was calculated based on the ratio of intensities [arachidonic acid/d8-arachidonic acid].

IC50	Compound
0.67 µM	O=C1CO[C@@H]2CCN(C(=O)N3CC4CCC(C3)C4COc3ccc(F)cc3Cl)C[C@@H]2N1 (stereo partly drawn) [Example 27, (4aS,8aR)-6-[8-[(2-chloro-4-fluoro-phenox)methyl]-3-azabicyclo[3.2.1]octane-3-carbonyl]-4,4a,5,7,8,8a-hexahydropyrido[4,3-b][1,4]oxazin-3-one]
0.0162 µM	(4aR,8aS)-6-[rel-(1R,4R,5S)-5- [(5-chloro-4-cyclopropyl-2- pyridyl)methoxy]-2- azabicyclo[2.2.1]heptane-2- carbonyl]-4,4a,5,7,8,8a- hexahydropyrido[4,3- b][1,4]oxazin-3-one [Example 10]
0.0825 µM	(4aR,8aS)-6-[rel-(1R,4R,5S)-5- [(5-chloro-4-cyclopropyl-2- pyridyl)methoxy]-2- azabicyclo[2.2.1]heptane-2- carbonyl]-4,4a,5,7,8,8a- hexahydropyrido[4,3- b][l,4]oxazin-3-one [Example 11]
0.0097 µM	(4aR,8aS)-6-[rel-(1R,4R,5S)-5- [[2-fluoro-4- (trifluoromethyl)phenyl]methoxy]- 2-azabicyclo[2.2.1]heptane-2- carbonyl]-4,4a,5,7,8,8a- hexahydropyrido[4,3- b][1,4]oxazin-3-one [Example 20]
0.0186 µM	(4aR,8aS)-6-[rel-(1R,4R,5S)-5- [[2-fluoro-4- (trifluoromethyl)phenyl]methoxy]- 2-azabicyclo[2.2.1]heptane-2- carbonyl]-4,4a,5,7,8,8a- hexahydropyrido[4,3- b][1,4]oxazin-3-one [Example 21]

Compound	IC50
O=C1CO[C@H]2CCN(C(=O)N3C4CCC3CC(COc3ccc(F)cc3Cl)C4)C[C@H]2N1 (stereo partly drawn) [Example 26, (4aR,8aS)-6-[3-[(2-chloro-4-fluoro-phenoxy)methyl]-8-azabicyclo[3.2.1]octane-8-carbonyl]-4,4a,5,7,8,8a-hexahydropyrido[4,3-b][1,4]oxazin-3-one]	3.69 µM
